Biological target: T1, TBK1 (Homo sapiens, UniProt Q9UHD2)
T1 construct: All protein kinases were of human origin and encoded full length proteins, unless indicated otherwise; His6; made in house; host or cells: insect Sf21 cells
T1 sequence (Q9UHD2 1-729): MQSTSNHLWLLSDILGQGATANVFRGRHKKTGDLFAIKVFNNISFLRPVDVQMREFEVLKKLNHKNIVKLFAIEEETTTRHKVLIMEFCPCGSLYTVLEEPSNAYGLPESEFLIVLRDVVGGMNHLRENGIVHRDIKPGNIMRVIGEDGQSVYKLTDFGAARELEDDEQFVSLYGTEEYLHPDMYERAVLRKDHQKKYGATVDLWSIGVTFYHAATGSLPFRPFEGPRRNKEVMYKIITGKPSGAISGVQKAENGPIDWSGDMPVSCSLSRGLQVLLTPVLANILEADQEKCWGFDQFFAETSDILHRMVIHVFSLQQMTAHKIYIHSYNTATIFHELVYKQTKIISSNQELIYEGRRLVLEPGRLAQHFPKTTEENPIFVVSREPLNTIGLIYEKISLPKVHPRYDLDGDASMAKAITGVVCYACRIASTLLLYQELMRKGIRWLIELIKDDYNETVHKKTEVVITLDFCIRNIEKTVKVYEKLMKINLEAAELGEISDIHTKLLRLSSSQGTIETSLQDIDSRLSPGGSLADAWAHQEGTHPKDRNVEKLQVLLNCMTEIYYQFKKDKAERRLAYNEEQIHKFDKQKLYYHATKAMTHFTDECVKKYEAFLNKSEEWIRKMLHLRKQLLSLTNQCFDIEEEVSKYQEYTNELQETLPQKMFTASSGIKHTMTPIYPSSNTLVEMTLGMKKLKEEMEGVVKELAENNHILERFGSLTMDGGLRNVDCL
Experiment: TBK1 protein kinase assay ([γ-33P]ATP filter-plate, IC50 from 10 concentrations)
Format: biochemical
Conditions: 50 μM ATP, peptide substrate 300 μM, 30 min, 21° C.; read-out: Potency score (TBK1 IC50)
Source text: All protein kinases were of human origin and encoded full length proteins, unless indicated otherwise. They were either expressed as glutathione S-transferase (GST) fusion proteins in Escherichia Coli or as hexahistidine (His6)-tagged proteins in insect Sf21 cells. GST fusion proteins were purified by affinity chromatography on glutathione-Sepharose, and His6-tagged proteins on nickel/nitriloacetate-agarose. The procedures for expressing some of the protein kinases used herein have been detailed previously.^8,9 The following sections outline the DNA vectors synthesised and the procedures used to express and purifying protein kinases that have not been reported previously.
The following kinases were expressed in Sf21 cells: Aurora B and Aurora C, extra-cellular signal-regulated kinase 8 (ERK8), microtubule affinity regulating kinase 3 (MARK3), protein kinase Bα[118-480][S473D], protein kinase Bβ (PKBβ[120-481][S474D], 3-phosphoinositide-dependent protein kinase-1 [52-556] (PDK1[52-556], IKKε, TBK1,
All assays (25.5 μl) were carried out at room temperature (21° C.) and were linear with respect to time and enzyme concentration under the conditions used. Assays were performed for 30 min using Multidrop Micro reagent dispensers (Thermo Electron Corporation, Waltham, Mass. 02454, USA) in a 96-well format. The concentration of magnesium acetate in the assays was 10 mM and the [γ-33P] ATP (800 cpm/pmol) was used at 5, 20 or 50 μM as indicated, in order to be at or below the Km for ATP for each enzyme. Protein kinases assayed at 5 μM ATP were: ERK1, ERK8, PKBα, MARK3, Aurora C. Protein kinases assayed at 20 μM ATP were: JNK1, PDK1, CHK1, CHK2, CDK2 and Aurora B. Protein kinases assayed at 50 μM ATP were: MNK2, IKKepsilon and TBK1.
The assays were initiated with MgATP, stopped by addition of 5 μl of 0.5 M orthophosphoric acid and spotted on to P81 filterplates using a unifilter harvester (PerkinElmer, Boston, Mass. 02118, USA). The IC50 values of inhibitors were determined after carrying out assays at 10 different concentrations of each compound.
ERK1 and ERK8 were both assayed against myelin basic protein (MBP, 0.33 mg/ml). MARK3 was assayed against the peptide […] (300 μM), MNK2 against the eIF4E protein (0.5 mg/ml). PKBβ was assayed against the peptide GRPRTSSFAEGKK (30 μM). TBK1 were assayed against ([…]) (300 μM). The substrates used for other protein kinases were described previously.^8,9
Unless stated otherwise, enzymes were diluted in 50 mM Tris/HCl pH 7.5, 0.1 mM EGTA, 1 mg/ml BSA, 0.1% (v/v) 2-mercaptoethanol and assayed in 50 mM Tris/HCl pH 7.5, 0.1 mM EGTA, 0.1% (v/v) 2-mercaptoethanol.

O=C(NCCCn1ccc2cnc(Nc3ccc4[nH]ncc4c3)nc21)C1CCC1 [Example 40, Cyclobutanecarboxylic acid {3-[2-(1H-indazol-5-ylamino)-pyrrolo[2,3-d]pyrimidin-7-yl]-propyl}-amide] showed an IC50 of under 100 nM.

For O=C(NCCCn1ccc2cnc(Nc3cccc(-n4cncn4)c3)nc21)C1CCC1 [Example 41, Cyclobutanecarboxylic acid {3-[2-(3-1,2,4-triazol-1-yl-phenylamino)-pyrrolo[2,3-d]pyrimidin-7-yl]-propyl}-amide], the IC50 was under 100 nM.

Work on O=C(NCCCn1ccc2cnc(Nc3cccnc3)nc21)C1CCC1 [Example 43, Cyclobutanecarboxylic acid {3-[2-(pyridin-3-ylamino)-pyrrolo[2,3-d]pyrimidin-7-yl]-propyl}-amide] yielded an IC50 of under 100 nM.

Cn1ncc2cc(Nc3ncc4ccn(CCCNC(=O)C5CCC5)c4n3)cnc21 [Example 44, Cyclobutanecarboxylic acid {3-[2-(1-methyl-1H-pyrazolo[3,4-b]pyridin-5-ylamino)-pyrrolo[2,3-d]pyrimidin-7-yl]-propyl}-amide] gave an IC50 of under 100 nM.

Molecule O=C(NCCCn1ccc2cnc(Nc3ccc4nccn4c3)nc21)C1CCC1 [Example 45, Cyclobutanecarboxylic acid {3-[2-(imidazo[1,2-a]pyridin-6-ylamino)-pyrrolo[2,3-d]pyrimidin-7-yl]-propyl}amide] has an IC50 of under 100 nM.

For O=C(NCCCn1ccc2cnc(Nc3ccc4nccnc4c3)nc21)C1CCC1 [Example 46, Cyclobutanecarboxylic acid {3-[2-(quinoxalin-6-ylamino)-pyrrolo[2,3-d]pyrimidin-7-yl]-propyl}-amide], the IC50 was under 100 nM.

With CCn1cc(Nc2ncc3ccn(CCCNC(=O)C4CCC4)c3n2)cn1 [Example 47, Cyclobutanecarboxylic acid {3-[2-(1-ethyl-1H-pyrazol-4-ylamino)-pyrrolo[2,3-d]pyrimidin-7-yl]-propyl}-amide] the IC50 was under 100 nM.

O=C(NCCCn1ccc2cnc(Nc3cccc(N4CCOCC4)c3)nc21)C1CCC1 [Example 48, Cyclobutanecarboxylic acid {3-[2-(3-morpholin-4-yl-phenylamino)-pyrrolo[2,3-d]pyrimidin-7-yl]-propyl}-amide] showed an IC50 of under 100 nM.

O=C(NCCCn1ccc2cnc(Nc3cccc(CN4CCCCC4)c3)nc21)C1CCC1 [Example 49, Cyclobutanecarboxylic acid {3-[2-(3-piperidin-1-ylmethyl-phenylamino)-pyrrolo[2,3-d]pyrimidin-7-yl]-propyl}-amide] gave an IC50 of under 100 nM.

O=C(NCCCn1ccc2cnc(Nc3ccc4ncccc4c3)nc21)C1CCC1 [Example 50, Cyclobutanecarboxylic acid {3-[2-(quinolin-6-ylamino)-pyrrolo[2,3-d]pyrimidin-7-yl]-propyl}-amide] was tested, and the IC50 was under 100 nM.

With CC(C)N1CCC(n2cc(Nc3ncc4ccn(CCCNC(=O)C5CCC5)c4n3)cn2)CC1 [Example 51, Cyclobutanecarboxylic acid (3-{2-[1-(1-isopropyl-piperidin-4-yl)-1H-pyrazol-4-ylamino]-pyrrolo[2,3-d]pyrimidin-7-yl}-propyl)-amide] the IC50 was under 100 nM.

O=C(NCCCn1ccc2cnc(Nc3cccc(CN4CCOCC4)c3)nc21)C1CCC1 [Example 52, Cyclobutanecarboxylic acid {3-[2-(3-morpholin-4-ylmethyl-phenylamino)-pyrrolo[2,3-d]pyrimidin-7-yl]-propyl}-amide] gave an IC50 of under 100 nM.

CN1CCc2ccc(Nc3ncc4ccn(CCCNC(=O)C5CCC5)c4n3)cc2C1 [Example 53, Cyclobutanecarboxylic acid {3-[2-(2-methyl-1,2,3,4-tetrahydro-isoquinolin-7-ylamino)-pyrrolo[2,3-d]pyrimidin-7-yl]-propyl}-amide] showed an IC50 of under 100 nM.

Molecule O=C(NCCCn1ccc2cnc(Nc3ccc(-c4cnco4)cc3)nc21)C1CCC1 [Example 54, Cyclobutanecarboxylic acid {3-[2-(4-oxazol-5-yl-phenylamino)-pyrrolo[2,3-d]pyrimidin-7-yl]-propyl}-amide] has an IC50 of under 100 nM.

CN1CCCN(c2ccc(Nc3ncc4ccn(CCCNC(=O)C5CCC5)c4n3)cn2)CC1 [Example 55, Cyclobutanecarboxylic acid (3-{2-[6-(4-methyl-perhydro-1,4-diazepin-1-yl)-pyridin-3-ylamino]-pyrrolo[2,3-d]pyrimidin-7-yl}-propyl)-amide] gave an IC50 of 100 to 1000 nM.

CN1CCC(c2ccc(Nc3ncc4ccn(CCCNC(=O)C5CCC5)c4n3)cc2)CC1 [Example 56, Cyclobutanecarboxylic acid (3-{2-[4-(1-methyl-piperidin-4-yl)-phenylamino]-pyrrolo[2,3-d]pyrimidin-7-yl}-propyl]-amide] was tested, and the IC50 was under 100 nM.

Work on CN1CCC(O)(c2ccc(Nc3ncc4ccn(CCCNC(=O)C5CCC5)c4n3)cc2)CC1 [Example 57, Cyclobutanecarboxylic acid (3-{2-[4-(4-hydroxy-1-methyl-piperidin-4-yl)-phenylamino]-pyrrolo[2,3-d]pyrimidin-7-yl}-propyl)amide] yielded an IC50 of under 100 nM.

For COC1(c2ccc(Nc3ncc4ccn(CCCNC(=O)C5CCC5)c4n3)cc2)CCN(C)CC1 [Example 58, Cyclobutanecarboxylic acid (3-{2-[4-(4-methoxy-1-methyl-piperidin-4-yl)-phenylamino]-pyrrolo[2,3-d]pyrimidin-7-yl}-propyl)-amide], the IC50 was under 100 nM.

Molecule CN1CCC(C#N)(c2ccc(Nc3ncc4ccn(CCCNC(=O)C5CCC5)c4n3)cc2)CC1 [Example 59, Cyclobutanecarboxylic acid (3-{2-[4-(4-cyano-1-methyl-piperidin-4-yl)-phenylamino]-pyrrolo[2,3-d]pyrimidin-7-yl}-propyl)-amide] has an IC50 of under 100 nM.

Molecule O=C(NCCCn1ccc2cnc(Nc3ccc(C4CCN(CCF)CC4)cc3)nc21)C1CCC1 [Example 60, Cyclobutanecarboxylic acid [3-(2-{4-[1-(2-fluoro-ethyl)-piperidin-4-yl]-phenylamino}-pyrrolo[2,3-d]pyrimidin-7-yl)-propyl]-amide] has an IC50 of under 100 nM.

From patent US20120088753A1, “PYRROLOPYRIMIDINES AND USED AS KINASE INHIBITORS” (MEDICAL RESEARCH COUNCIL TECHNOLOGY, priority 2009, published 2012)
